# Where “and” joins values, the source holds several entries; their conditions need not be identical. Equal entries are not always repeated.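 Grown in 96-well plates, cells were treated for 48 hours with each compound at five concentrations. Insufficient inhibition: endpoint recorded as highest concentration tested. At the GI50, growth is halved. TGI marks complete inhibition of growth.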
# Columns and labels:
# Assay in all cases: DTP human tumour cell line panel, 48 h
# OVCAR-5 ovarian = tested on: OVCAR-5 ovarian
# SK-OV-3 ovarian = tested on: SK-OV-3 ovarian
# LOX IMVI melanoma = tested on: LOX IMVI melanoma
# OVCAR-8 ovarian = tested on: OVCAR-8 ovarian
# HCC-2998 colon = tested on: HCC-2998 colon
# ACHN renal = tested on: ACHN renal
# IGROV1 ovarian = tested on: IGROV1 ovarian
# A549 NSCLC = tested on: A549 NSCLC
# 786-0 renal = tested on: 786-0 renal
# SR leukemia = tested on: SR leukemia
Structure (SMILES),GI50 (OVCAR-5 ovarian),TGI (OVCAR-5 ovarian),GI50 (SK-OV-3 ovarian),TGI (SK-OV-3 ovarian),GI50 (LOX IMVI melanoma),TGI (LOX IMVI melanoma),GI50 (OVCAR-8 ovarian),TGI (OVCAR-8 ovarian),GI50 (HCC-2998 colon),TGI (HCC-2998 colon),GI50 (ACHN renal),TGI (ACHN renal),GI50 (IGROV1 ovarian),TGI (IGROV1 ovarian),GI50 (A549 NSCLC),TGI (A549 NSCLC),GI50 (786-0 renal),TGI (786-0 renal),GI50 (SR leukemia),TGI (SR leukemia)
CN(C)CC(C(=O)c1ccccc1)c1ccccc1 (stereo not given),5.93 µM,16.8 µM,2.62 µM,7.77 µM,0.765 µM,2.33 µM,1.99 µM,6.56 µM,4.86 µM,16.4 µM,1.36 µM,2.65 µM,2.2 µM,5.47 µM,6.76 µM,20.6 µM,3.58 µM,10.4 µM,2.28 µM,7.51 µM
Nc1nc(-c2ccccc2)c(-c2ccccc2)c(-c2nc(N)nc(-c3ccccc3)c2-c2ccccc2)n1,–,> 100 µM,–,> 100 µM,–,> 100 µM,–,> 100 µM,–,> 100 µM,–,> 100 µM,–,> 100 µM,–,> 100 µM,–,> 100 µM,–,> 100 µM
COc1cc(/C=C/C(=O)C(=Cc2ccc(F)c(F)c2)C(=O)/C=C/c2ccc(O)c(OC)c2)ccc1O,3.25 µM,14.3 µM,3.45 µM,12.5 µM,1.95 µM,4.48 µM,2.93 µM,11.1 µM,1.98 µM,3.79 µM,3.27 µM,19.9 µM,3.82 µM,67.9 µM,3.34 µM,16.9 µM,2.32 µM,5.5 µM,2.83 µM,9.2 µM
COC(=O)[C@]12CC[C@@H](C)[C@H](C)[C@@H]1C1=CC[C@@H]3[C@@]4(C)C[C@@H](OC(=O)c5ccco5)[C@H](O)[C@@](C)(CO)[C@@H]4[C@H](O)C[C@@]3(C)[C@]1(C)CC2,2.13 µM,5.51 µM,3.95 µM,11.9 µM,1.68 µM,3.1 µM,3.37 µM,10.4 µM,1.95 µM,3.73 µM,2.76 µM,7.69 µM,2.42 µM,6.33 µM,2.44 µM,7.05 µM,2.1 µM,4.46 µM,1.99 µM,4.68 µM
C=CCN1C(=O)/C(=c2\sc3n(c2=O)C2C(NN=3)N(CC)C(=O)N2CC)c2ccccc21 (stereo not given),1.55 µM,> 100 µM,1.45 µM,> 23.9 µM,0.698 µM,> 100 µM,1.12 µM,> 100 µM,1.28 µM,> 100 µM,0.834 µM,> 100 µM,0.978 µM,> 100 µM,1.21 µM,> 100 µM,0.708 µM,14.9 µM,0.38 µM,> 100 µM
CSC1=Nc2c(c(C)c(-c3ccccc3)n2COC(CO)CO)C2=NC(=O)C(C)N12 (stereo not given),> 100 µM,> 100 µM,> 100 µM,> 100 µM,> 100 µM,> 100 µM,> 100 µM,> 100 µM,> 100 µM,> 100 µM,> 100 µM,> 100 µM,26.5 µM,> 100 µM,> 100 µM,> 100 µM,> 100 µM,> 100 µM,4.07 µM,> 100 µM
O=C(c1cc2ccccc2[nH]1)C(O)(c1cc2ccccc2[nH]1)c1cc2ccccc2[nH]1,–,> 246 µM,–,> 246 µM,–,> 246 µM,–,> 246 µM,–,> 246 µM,–,> 246 µM,–,> 246 µM,–,> 246 µM,–,> 246 µM,–,> 246 µM
N/C(=N\O)c1ncc(-c2ccc(C(F)(F)F)cc2)c(NC2CCCCCC2)n1,4.51 µM,19.3 µM,7.05 µM,20.8 µM,8.76 µM and 2.85 µM,10.8 µM,4.6 µM and 2.19 µM,13.4 µM,3.92 µM,14.3 µM,4.49 µM and 2.23 µM,13.3 µM,6.72 µM and 2.26 µM,10.7 µM,2.34 µM,11.1 µM,3.54 µM,13.1 µM,4.49 µM and 1.52 µM,6.68 µM
CCOc1ccc(Cc2nccc3cc(OCC)c(OCC)cc23)cc1OCC,4.58 µM,22 µM,16.3 µM,58.2 µM,2.9 µM,17 µM,5.33 µM,31.1 µM,5.53 µM,21.3 µM,7.54 µM,45.1 µM,2.39 µM,12.7 µM,5.7 µM,27.8 µM,9.57 µM,40.4 µM,12.6 µM,56.2 µM
CCCNc1nc(N(C)O)nc(N(C)O)n1,6.09 µM,> 100 µM,3.46 µM,> 100 µM,1.31 µM,> 100 µM,2.45 µM,> 100 µM,3.04 µM,> 100 µM,1.03 µM,> 100 µM,2.13 µM,14.6 µM,1.8 µM,> 100 µM,2.53 µM,> 43.4 µM,0.149 µM,> 30.1 µM
O=C(CCCn1c2c(sc3ncccc32)c(=O)n2nnc(-c3ccccc3)c12)NCCc1cnc[nH]1,11.6 µM,32.7 µM,14.3 µM,27.7 µM,12.4 µM,26.6 µM,0.0952 µM,17.3 µM,2.03 µM,29.9 µM,15.3 µM,31 µM,9.54 µM,27.6 µM,8.74 µM,34.7 µM,12.6 µM,25.7 µM,2.52 µM,6.14 µM
Cc1ccc(/C=C(\C#N)n2nnc3cc(Cl)c(Cl)cc32)cc1,3.25 µM,9.43 µM,3.69 µM,91.5 µM,1.81 µM,3.65 µM,2.87 µM,> 100 µM,1.9 µM,4.12 µM,1.8 µM,3.63 µM,2.26 µM,6.48 µM,3.58 µM,> 100 µM,2.46 µM,6 µM,0.417 µM,40.6 µM
CCc1cccc(C(C)CC)c1N=C(NC(=O)c1ccccc1C(=O)NC(=Nc1c(CC)cccc1C(C)CC)SC)SC (stereo not given),–,> 100 µM,–,> 100 µM,–,> 100 µM,–,> 100 µM,–,> 100 µM,–,> 100 µM,–,> 100 µM,–,> 100 µM,–,> 100 µM,–,> 100 µM
